{
  "source": "patent US10918645B2",
  "about": "(LIFEARC, priority 2016, dated 2021)",
  "assay_type_in_all_cases": "biochemical",
  "details_in_all_cases": "1 μM inhibitor concentration",
  "key": {"[1]": {"molecular_target": "MKK1 (Homo sapiens (Human), UniProt Q02750)", "sequence (Q02750 whole entry, species assumed)": "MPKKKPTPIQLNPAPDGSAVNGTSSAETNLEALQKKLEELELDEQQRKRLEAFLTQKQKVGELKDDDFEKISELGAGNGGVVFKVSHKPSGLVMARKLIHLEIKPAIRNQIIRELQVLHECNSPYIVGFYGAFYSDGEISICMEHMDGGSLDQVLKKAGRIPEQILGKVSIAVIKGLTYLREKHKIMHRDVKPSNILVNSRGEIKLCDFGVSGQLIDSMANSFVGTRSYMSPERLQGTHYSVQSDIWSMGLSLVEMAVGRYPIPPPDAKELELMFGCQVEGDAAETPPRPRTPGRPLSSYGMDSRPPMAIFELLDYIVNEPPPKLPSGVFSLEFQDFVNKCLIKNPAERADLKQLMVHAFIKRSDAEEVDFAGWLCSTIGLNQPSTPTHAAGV", "assay": "MKK1 kinase selectivity assay", "experimental": "After incubating at room temperature for 30 min, 5 μl from the first reaction is pipetted into 20 μl of the second reaction mix containing (final concentration) 25 mM Tris pH 7.5, 0.1 mM EGTA, 0.1 mM Na3VO4, 0.66 mg/ml myelin basic protein (MBP), 10 mM magnesium acetate and 0.05 mM [33P-g-ATP] (500-1000 cpm/pmole) and incubated for 30 min at room temperature. Assays are stopped by addition of 5 μl of 0.5 M (3%) orthophosphoric acid and then harvested onto P81 Unifilter plates with a wash buffer of 50 mM orthophosphoric acid."}, "[2]": {"molecular_target": "PAK4 (Homo sapiens (Human), UniProt O96013)", "sequence (O96013 whole entry, species assumed)": "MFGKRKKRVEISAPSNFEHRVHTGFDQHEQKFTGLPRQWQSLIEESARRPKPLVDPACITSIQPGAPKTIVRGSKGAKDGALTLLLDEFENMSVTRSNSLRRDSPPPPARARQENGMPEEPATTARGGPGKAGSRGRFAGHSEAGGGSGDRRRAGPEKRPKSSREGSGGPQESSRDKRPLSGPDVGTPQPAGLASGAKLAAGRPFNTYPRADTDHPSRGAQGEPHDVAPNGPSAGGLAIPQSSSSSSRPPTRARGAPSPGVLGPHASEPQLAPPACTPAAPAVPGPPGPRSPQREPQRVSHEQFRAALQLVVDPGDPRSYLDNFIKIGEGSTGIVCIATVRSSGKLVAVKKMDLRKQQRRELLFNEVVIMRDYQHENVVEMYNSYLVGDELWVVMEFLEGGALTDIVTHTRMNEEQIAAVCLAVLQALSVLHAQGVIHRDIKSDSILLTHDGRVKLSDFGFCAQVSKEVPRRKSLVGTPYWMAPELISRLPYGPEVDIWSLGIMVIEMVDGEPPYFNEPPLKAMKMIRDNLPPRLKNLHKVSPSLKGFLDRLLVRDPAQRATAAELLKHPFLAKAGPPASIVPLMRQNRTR", "assay": "PAK4 kinase selectivity assay", "experimental": "PAK4 (5-20 mU diluted in 50 mM Tris pH 7.5, 0.1 mM EGTA, 0.1% b-mercaptoethanol, 1 mg/ml BSA) is assayed against a substrate peptide ([…]) in a final volume of 25.5 μl containing 50 mM Tris pH 7.5, 0.05% b-mercaptoethanol, 300 μM substrate peptide, 10 mM magnesium acetate and 0.005 mM [33P-g-ATP] (50-1000 cpm/pmole) and incubated for 30 min at room temperature. Assays are stopped by addition of 5 μl of 0.5 M (3%) orthophosphoric acid and then harvested onto P81 Unifilter plates with a wash buffer of 50 mM orthophosphoric acid."}, "[3]": {"molecular_target": "ULK2 (Homo sapiens (Human), UniProt Q8IYT8)", "sequence (Q8IYT8 whole entry, species assumed)": "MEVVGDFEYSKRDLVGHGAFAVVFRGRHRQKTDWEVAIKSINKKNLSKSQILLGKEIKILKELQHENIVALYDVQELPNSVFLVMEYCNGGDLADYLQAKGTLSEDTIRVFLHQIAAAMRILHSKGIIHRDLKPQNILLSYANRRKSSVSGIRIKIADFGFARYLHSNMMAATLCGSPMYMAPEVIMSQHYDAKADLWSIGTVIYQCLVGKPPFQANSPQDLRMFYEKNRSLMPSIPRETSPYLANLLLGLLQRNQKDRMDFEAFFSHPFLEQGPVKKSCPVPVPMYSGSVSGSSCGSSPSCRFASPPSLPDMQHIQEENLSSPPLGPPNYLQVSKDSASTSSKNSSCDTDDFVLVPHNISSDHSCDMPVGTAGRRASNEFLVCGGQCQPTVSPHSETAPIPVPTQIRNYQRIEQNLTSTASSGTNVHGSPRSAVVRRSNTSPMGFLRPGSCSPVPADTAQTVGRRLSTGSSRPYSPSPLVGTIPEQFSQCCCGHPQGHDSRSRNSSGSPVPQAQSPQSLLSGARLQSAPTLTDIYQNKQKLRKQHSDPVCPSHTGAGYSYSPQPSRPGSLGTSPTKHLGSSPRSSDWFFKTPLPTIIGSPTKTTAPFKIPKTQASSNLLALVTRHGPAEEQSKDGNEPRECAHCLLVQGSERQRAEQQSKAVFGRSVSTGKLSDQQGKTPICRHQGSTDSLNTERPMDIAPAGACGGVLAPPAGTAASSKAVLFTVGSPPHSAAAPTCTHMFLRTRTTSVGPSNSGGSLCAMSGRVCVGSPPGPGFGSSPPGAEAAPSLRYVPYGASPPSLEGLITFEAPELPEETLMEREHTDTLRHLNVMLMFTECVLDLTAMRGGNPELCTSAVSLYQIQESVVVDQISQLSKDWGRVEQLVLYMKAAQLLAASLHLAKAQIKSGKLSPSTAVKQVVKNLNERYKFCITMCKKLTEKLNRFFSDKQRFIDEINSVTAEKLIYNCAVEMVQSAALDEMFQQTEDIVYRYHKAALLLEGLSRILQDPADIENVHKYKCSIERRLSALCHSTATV", "assay": "ULK2 kinase selectivity assay"}, "[4]": {"molecular_target": "RSK1 (Homo sapiens (Human), UniProt Q15418)", "sequence (Q15418 whole entry, species assumed)": "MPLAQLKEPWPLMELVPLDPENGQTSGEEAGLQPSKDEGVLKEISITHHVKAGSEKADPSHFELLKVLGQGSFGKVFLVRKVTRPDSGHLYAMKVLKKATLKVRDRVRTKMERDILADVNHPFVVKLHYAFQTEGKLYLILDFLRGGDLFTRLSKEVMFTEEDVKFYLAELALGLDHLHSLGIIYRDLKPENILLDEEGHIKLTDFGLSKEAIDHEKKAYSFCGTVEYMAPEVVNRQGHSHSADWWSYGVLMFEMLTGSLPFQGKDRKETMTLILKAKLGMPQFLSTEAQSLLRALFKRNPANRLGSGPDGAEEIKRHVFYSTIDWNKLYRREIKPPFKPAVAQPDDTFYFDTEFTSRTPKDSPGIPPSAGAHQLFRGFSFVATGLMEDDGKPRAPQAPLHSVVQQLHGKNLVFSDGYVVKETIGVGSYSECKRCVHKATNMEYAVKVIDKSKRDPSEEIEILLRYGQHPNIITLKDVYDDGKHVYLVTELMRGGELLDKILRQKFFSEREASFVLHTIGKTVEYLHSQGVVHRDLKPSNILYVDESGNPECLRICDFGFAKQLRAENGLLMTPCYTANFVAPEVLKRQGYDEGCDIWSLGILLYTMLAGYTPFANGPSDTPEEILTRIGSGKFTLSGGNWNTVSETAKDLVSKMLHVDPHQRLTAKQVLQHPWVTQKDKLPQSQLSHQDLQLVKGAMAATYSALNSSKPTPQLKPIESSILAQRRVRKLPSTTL", "assay": "RSK1 kinase selectivity assay", "experimental": "MAPKAP-K1a (5-20 mU diluted in 20 mM MOPS pH 7.5, 1 mM EDTA, 0.01% Brij35, 5% glycerol, 0.1% b-mercaptoethanol, 1 mg/ml BSA) is assayed against […] in a final volume of 25.5 μl containing 50 mM Na-b-glycerophosphate pH 7.5, 0.5 mM EDTA, 30 μM substrate peptide, 10 mM magnesium acetate and 0.05 mM [33P-g-ATP] (50-1000 cpm/pmole) and incubated for 40 min at room temperature. Assays are stopped by addition of 5 μl of 0.5 M (3%) orthophosphoric acid and then harvested onto P81 Unifilter plates with a wash buffer of 50 mM orthophosphoric acid."}, "[5]": {"molecular_target": "IRR (Homo sapiens (Human), UniProt P14616)", "sequence (P14616 27-1297, species assumed)": "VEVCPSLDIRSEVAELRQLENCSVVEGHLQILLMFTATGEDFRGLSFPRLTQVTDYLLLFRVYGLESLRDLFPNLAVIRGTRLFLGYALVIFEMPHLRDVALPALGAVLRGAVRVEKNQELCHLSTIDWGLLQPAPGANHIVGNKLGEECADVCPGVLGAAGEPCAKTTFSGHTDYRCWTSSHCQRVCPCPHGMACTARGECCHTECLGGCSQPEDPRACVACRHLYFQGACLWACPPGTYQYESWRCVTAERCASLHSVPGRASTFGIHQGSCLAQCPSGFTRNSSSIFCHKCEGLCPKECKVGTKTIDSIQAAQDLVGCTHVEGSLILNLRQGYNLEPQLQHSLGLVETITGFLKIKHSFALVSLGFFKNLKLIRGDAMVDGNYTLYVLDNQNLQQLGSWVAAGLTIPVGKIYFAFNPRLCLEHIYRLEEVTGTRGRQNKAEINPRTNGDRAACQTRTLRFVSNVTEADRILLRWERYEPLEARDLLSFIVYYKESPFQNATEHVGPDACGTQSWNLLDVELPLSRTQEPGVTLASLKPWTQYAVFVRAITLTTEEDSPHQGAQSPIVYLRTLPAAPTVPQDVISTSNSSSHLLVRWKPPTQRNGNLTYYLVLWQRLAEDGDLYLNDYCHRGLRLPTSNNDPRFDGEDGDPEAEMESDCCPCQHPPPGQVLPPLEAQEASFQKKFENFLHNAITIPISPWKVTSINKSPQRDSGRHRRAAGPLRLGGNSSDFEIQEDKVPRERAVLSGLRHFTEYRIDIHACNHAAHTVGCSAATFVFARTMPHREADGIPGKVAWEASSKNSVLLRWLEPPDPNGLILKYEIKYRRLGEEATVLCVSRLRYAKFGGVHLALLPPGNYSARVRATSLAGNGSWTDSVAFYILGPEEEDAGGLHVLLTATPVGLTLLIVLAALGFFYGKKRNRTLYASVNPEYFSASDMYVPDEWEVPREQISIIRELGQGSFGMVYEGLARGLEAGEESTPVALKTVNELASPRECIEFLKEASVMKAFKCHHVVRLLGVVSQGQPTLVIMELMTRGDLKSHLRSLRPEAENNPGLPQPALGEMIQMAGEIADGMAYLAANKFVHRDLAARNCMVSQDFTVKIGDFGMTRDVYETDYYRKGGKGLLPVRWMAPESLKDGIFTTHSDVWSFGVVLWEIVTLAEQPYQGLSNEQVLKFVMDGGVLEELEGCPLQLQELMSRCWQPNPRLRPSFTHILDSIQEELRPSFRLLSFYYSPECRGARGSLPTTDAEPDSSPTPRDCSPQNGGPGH", "assay": "IRR kinase selectivity assay", "experimental": "5-20 mU of IRR (diluted in 50 mM Hepes (pH 7.5), 0.1 mM EGTA) is assayed against MBP in a final volume of 25.5 μl containing 50 mM Hepes (pH 7.5), 0.1 mM EGTA, 0.33 mg/ml MBP, 10 mM magnesium acetate and 0.005 mM [33P-g-ATP](500-1000 cpm/pmole) and incubated for 30 mins at room temperature. Assays are stopped by addition of 5 μl of 0.5M (3%) orthophosphoric acid. Assays are harvested onto P81 Unifilter plates using a wash buffer of 50 mM orthophosphoric acid."}, "[6]": {"molecular_target": "PRAK (Homo sapiens (Human), UniProt Q8IW41)", "sequence (Q8IW41 whole entry, species assumed)": "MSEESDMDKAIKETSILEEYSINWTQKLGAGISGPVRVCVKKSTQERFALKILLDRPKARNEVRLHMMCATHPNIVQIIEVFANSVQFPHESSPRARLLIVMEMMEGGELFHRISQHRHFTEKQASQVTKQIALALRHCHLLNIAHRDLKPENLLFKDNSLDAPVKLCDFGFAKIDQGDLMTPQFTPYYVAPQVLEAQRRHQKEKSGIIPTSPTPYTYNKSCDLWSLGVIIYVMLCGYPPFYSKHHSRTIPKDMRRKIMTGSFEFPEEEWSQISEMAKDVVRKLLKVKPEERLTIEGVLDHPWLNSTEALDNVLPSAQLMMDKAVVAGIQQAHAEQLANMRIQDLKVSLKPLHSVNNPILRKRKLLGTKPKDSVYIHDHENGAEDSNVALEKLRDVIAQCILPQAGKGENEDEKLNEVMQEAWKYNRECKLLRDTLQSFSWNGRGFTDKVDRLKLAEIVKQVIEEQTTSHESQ", "assay": "PRAK kinase selectivity assay", "experimental": "(§1) PRAK (5-20 mU diluted in 50 mM Na-b-glycerophosphate pH 7.5, 0.1 mM EGTA, 0.1% b-mercaptoethanol, 1 mg/ml BSA) is assayed against […] in a final volume of 25.5 μl containing 50 mM Na-b-glycerophosphate pH 7.5, 0.1 mM EGTA, 30 μM substrate peptide, 10 mM magnesium acetate and 0.02 mM [33P-g-ATP] (50-1000 cpm/pmole) and incubated for 30 min at room temperature. Assays are stopped by addition of 5 μl of 0.5 M (3%) orthophosphoric acid and then harvested onto P81 Unifilter plates with a wash buffer of 50 mM orthophosphoric acid."}, "[7]": {"molecular_target": "NUAK1 (Homo sapiens (Human), UniProt O60285)", "assay": "NUAK1 kinase selectivity assay", "experimental": "as §1, with “NUAK1” for “PRAK”, “Tris” for “Na-b-glycerophosphate”, “0-mercaptoethanol,” for “b-mercaptoethanol,”, “0.3 mM […],” for “30 μM substrate peptide,”, “[33P-γ-ATP]” for “[33P-g-ATP]”"}, "[8]": {"molecular_target": "NEK6 (Homo sapiens (Human), UniProt Q9HC98)", "assay": "NEK6 kinase selectivity assay", "experimental": "NEK6 (5-20 mU diluted in 50 mM Tris (pH 7.5), 0.1 mM EGTA, 1 mg/ml BSA, 0.1%, b-Mercaptoethanol) is assayed against NEK6 peptide ([…]) in a final volume of 25.5 μl containing 50 mM Tris (pH 7.5), 0.1 mM EGTA, 0.01% Brij, 0.1%, b-Mercaptoethanol, NEK6 peptide (0.3 mM), 10 mM magnesium acetate and 0.05 mM [33P-g-ATP](500-1000 cpm/pmole) and incubated for 30 min at room temperature. Assays are stopped by addition of 5 μl of 0.5 M (3%) orthophosphoric acid and then harvested onto P81 Unifilter plates with a wash buffer of 50 mM orthophosphoric acid."}, "[9]": {"molecular_target": "CK1δ (Homo sapiens (Human), UniProt P48730)", "sequence (P48730 whole entry)": "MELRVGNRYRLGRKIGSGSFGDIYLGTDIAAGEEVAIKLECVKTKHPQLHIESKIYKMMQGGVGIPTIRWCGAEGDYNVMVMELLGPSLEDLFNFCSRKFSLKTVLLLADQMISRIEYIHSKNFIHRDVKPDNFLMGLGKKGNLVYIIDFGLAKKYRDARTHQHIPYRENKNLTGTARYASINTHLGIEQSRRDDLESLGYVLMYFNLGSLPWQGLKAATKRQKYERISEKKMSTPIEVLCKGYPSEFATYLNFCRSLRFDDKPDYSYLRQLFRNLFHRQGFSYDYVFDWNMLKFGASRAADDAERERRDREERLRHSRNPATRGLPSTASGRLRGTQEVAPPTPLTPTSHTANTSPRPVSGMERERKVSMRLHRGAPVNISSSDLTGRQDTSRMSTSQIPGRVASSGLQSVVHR", "assay": "CK1 kinase selectivity assay", "experimental": "CK1 (5-20 mU diluted in 20 mM Hepes pH7.5, 0.15 M NaCl, 0.1 mM EGTA, 0.1% Triton X-100, 5 mM DTT, 50% glycerol) is assayed against CKI peptide ([…]) in a final volume of 25.5 μl containing 20 mM Hepes pH 7.5, 0.15 M NaCl, 0.1 mM EDTA, 5 mM DTT, 0.1% Triton-X 100, CKI peptide (0.5 mM), 10 mM magnesium acetate and 0.02 mM [33P-g-ATP](500-1000 cpm/pmole) and incubated for 30 min at room temperature. Assays are stopped by addition of 5 μl of 0.5 M (3%) orthophosphoric acid and then harvested onto P81 Unifilter plates with a wash buffer of 50 mM orthophosphoric acid."}},
  "data": [
    {"smiles": "CC(C)n1ncc2c1CN(C1CCN(C)CC1)c1nccc3[nH]nc-2c13", "note": "[Example 68]", "values": [
      {"measurement": "percentage inhibition of MKK1", "setting": "[1]", "result": 31, "unit": "percentage"},
      {"measurement": "percentage inhibition of PAK4", "setting": "[2]", "result": 25, "unit": "percentage"},
      {"measurement": "percentage inhibition of ULK2", "setting": "[3]", "result": 10, "unit": "percentage"},
      {"measurement": "percentage inhibition of RSK1", "setting": "[4]", "result": 69, "unit": "percentage"},
      {"measurement": "percentage inhibition of IRR", "setting": "[5]", "result": 1, "unit": "percentage"},
      {"measurement": "percentage inhibition of PRAK", "setting": "[6]", "result": 13, "unit": "percentage"},
      {"measurement": "percentage inhibition of NUAK1", "setting": "[7]", "result": 65, "unit": "percentage"},
      {"measurement": "percentage inhibition of NEK6", "setting": "[8]", "result": 0, "unit": "percentage"},
      {"measurement": "percentage inhibition of CK1δ", "setting": "[9]", "result": 3, "unit": "percentage"}
    ]},
    {"smiles": "c1cc2[nH]nc3c2c(n1)N(C1CCC1)CCC3", "note": "[Example 22, 6-cyclobutyl-6,7,8,9-tetrahydro-2H-1,2,5,6-tetraazabenzo[cd]azulene]", "values": [
      {"measurement": "percentage inhibition of MKK1", "setting": "[1]", "result": 15, "unit": "percentage"},
      {"measurement": "percentage inhibition of PAK4", "setting": "[2]", "result": 6, "unit": "percentage"},
      {"measurement": "percentage inhibition of ULK2", "setting": "[3]", "result": 12, "unit": "percentage"},
      {"measurement": "percentage inhibition of RSK1", "setting": "[4]", "result": 0, "unit": "percentage"},
      {"measurement": "percentage inhibition of IRR", "setting": "[5]", "result": 8, "unit": "percentage"},
      {"measurement": "percentage inhibition of PRAK", "setting": "[6]", "result": 0, "unit": "percentage"},
      {"measurement": "percentage inhibition of NUAK1", "setting": "[7]", "result": 8, "unit": "percentage"},
      {"measurement": "percentage inhibition of NEK6", "setting": "[8]", "result": 3, "unit": "percentage"},
      {"measurement": "percentage inhibition of CK1δ", "setting": "[9]", "result": 0, "unit": "percentage"}
    ]},
    {"smiles": "c1cc2[nH]nc3c2c(n1)N(C1CCCC1)CCC3", "note": "[Example 23, 6-cyclopentyl-6,7,8,9-tetrahydro-2H-1,2,5,6-tetraazabenzo[cd]azulene]", "values": [
      {"measurement": "percentage inhibition of MKK1", "setting": "[1]", "result": 0, "unit": "percentage"},
      {"measurement": "percentage inhibition of PAK4", "setting": "[2]", "result": 0, "unit": "percentage"},
      {"measurement": "percentage inhibition of ULK2", "setting": "[3]", "result": 1, "unit": "percentage"},
      {"measurement": "percentage inhibition of RSK1", "setting": "[4]", "result": 0, "unit": "percentage"},
      {"measurement": "percentage inhibition of IRR", "setting": "[5]", "result": 4, "unit": "percentage"},
      {"measurement": "percentage inhibition of PRAK", "setting": "[6]", "result": 0, "unit": "percentage"},
      {"measurement": "percentage inhibition of NUAK1", "setting": "[7]", "result": 17, "unit": "percentage"},
      {"measurement": "percentage inhibition of NEK6", "setting": "[8]", "result": 1, "unit": "percentage"},
      {"measurement": "percentage inhibition of CK1δ", "setting": "[9]", "result": 0, "unit": "percentage"}
    ]},
    {"smiles": "CN1CCC(N2Cc3ccccc3-c3n[nH]c4ccnc2c34)CC1", "note": "[Example 55]", "values": [
      {"measurement": "percentage inhibition of MKK1", "setting": "[1]", "result": 65, "unit": "percentage"},
      {"measurement": "percentage inhibition of PAK4", "setting": "[2]", "result": 20, "unit": "percentage"},
      {"measurement": "percentage inhibition of ULK2", "setting": "[3]", "result": 31, "unit": "percentage"},
      {"measurement": "percentage inhibition of RSK1", "setting": "[4]", "result": 41, "unit": "percentage"},
      {"measurement": "percentage inhibition of IRR", "setting": "[5]", "result": 18, "unit": "percentage"},
      {"measurement": "percentage inhibition of PRAK", "setting": "[6]", "result": 18, "unit": "percentage"},
      {"measurement": "percentage inhibition of NUAK1", "setting": "[7]", "result": 76, "unit": "percentage"},
      {"measurement": "percentage inhibition of NEK6", "setting": "[8]", "result": 0, "unit": "percentage"},
      {"measurement": "percentage inhibition of CK1δ", "setting": "[9]", "result": 12, "unit": "percentage"}
    ]},
    {"smiles": "c1cc2[nH]nc3c2c(n1)N(C1CCOCC1)CCC3", "note": "[Example 29, 6-(tetrahydro-2H-pyran-4-yl)-6,7,8,9-tetrahydro-2H-1,2,5,6-tetraazabenzo[cd]azulene]", "values": [
      {"measurement": "percentage inhibition of MKK1", "setting": "[1]", "result": 21, "unit": "percentage"},
      {"measurement": "percentage inhibition of PAK4", "setting": "[2]", "result": 7, "unit": "percentage"},
      {"measurement": "percentage inhibition of ULK2", "setting": "[3]", "result": 7, "unit": "percentage"},
      {"measurement": "percentage inhibition of RSK1", "setting": "[4]", "result": 10, "unit": "percentage"},
      {"measurement": "percentage inhibition of IRR", "setting": "[5]", "result": 6, "unit": "percentage"},
      {"measurement": "percentage inhibition of PRAK", "setting": "[6]", "result": 0, "unit": "percentage"},
      {"measurement": "percentage inhibition of NUAK1", "setting": "[7]", "result": 7, "unit": "percentage"},
      {"measurement": "percentage inhibition of NEK6", "setting": "[8]", "result": 1, "unit": "percentage"},
      {"measurement": "percentage inhibition of CK1δ", "setting": "[9]", "result": 11, "unit": "percentage"}
    ]}
  ]
}
